Columns and labels:
[1] = Solubility determination in water; assay type: physicochemical; settings: each ml of water; room temperature; read-out: solubility in water (amount dissolved by each ml of water)
Experimental: The solubility of Photohexer-1 and Photohexer-2 in water was determined by conventional methods in the art.

[2] = system: Eca-109 cells; assay: MTT assay, photodynamic therapy on Eca-109 cells; assay type: cell-based, human
Source text: (§1) The cells in logarithmic growth phase were collected and inoculated on 24-well culture plates. When reaching 70%-80% confluence, cells were divided randomly into the following groups: control (the parallel control group without photosensitizer and irradiation), irradiation (irradiation treatment alone without photosensitizer); (photosensitizer treatment alone without irradiation), photodynamic treatment (treatment by photosensitizer in combination with irradiation). For the photosensitizer alone treatment group and photodynamic treatment group, an appropriate amount of Photohexer-1 (P-1) or Photohexer-2 (P-2) was respectively added away from light to give a final concentration of 0.8, 1.6, 3.2, 6.4 μM. Each group set 3 replicates. Cells were incubated with the active agent, different treatments were carried out according to the grouping. […] After treatment and digestion of each group of cells, it was inoculated into a 96-well plate at 100 μL/well, and four wells were set for each treatment. MTT assay was performed after 24 h from inoculation: 20 μL MTT solution was added to each well under the condition away from light, and the culture was continued for 4 hours. 150 μL DMSO was added to each well after discarding the supernatant. After 15 min of dissolution, the absorbance value (OD value) was measured using a microplate reader and the relative survival rate of cells was calculated according to the following formula: […]

[3] = system: CT26 cells; assay: MTT assay, photodynamic therapy on CT26 cells; assay type: cell-based, murine
Source text: as §1

[4] = system: MCF-7/ADR cells; assay: MTT assay, photodynamic therapy on MCF-7/ADR cells; assay type: cell-based, human
Source text: as §1

[5] = system: MCF-7 cells; assay: MTT assay, photodynamic therapy on MCF-7 cells; assay type: cell-based, human
Source text: as §1

[6] = system: SW-480 cells; assay: MTT assay, photodynamic therapy on SW-480 cells; assay type: cell-based, human
Source text: as §1

[7] = system: 7721 cells; assay: MTT assay, photodynamic therapy on 7721 cells; assay type: cell-based, human
Source text: as §1

[8] = system: 4T1 transplanted tumors; assay: Tumor-inhibition effect of P1 and P2-PDT on 4T1 xenografted mice; assay type: in vivo, Balb/c mice
Experimental: Experimental groups: blank control (2 mice), P-1 alone treatment (4 mg/kg, 8 mice), P-2 alone treatment (2 mg/kg, 8 mice), P-1 treatment (2 mg/kg, 4 mg/kg, 8 mice/group) combined with light irradiations, P-2 treatment (1 mg/kg, 2 mg/kg, 4 mg/kg, 8 mice/group) combined with light irradiations, 66 Balb/c mice in total.

[9] = 0.8 μM alone treatment, without irradiation
[10] = 0.8 μM combined with 2.6 J/cm^2 light irradiation
[11] = 0.8 μM combined with 5.2 J/cm^2 light irradiation
[12] = 0.8 μM combined with 10.4 J/cm^2 light irradiation
[13] = 1.6 μM alone treatment, without irradiation
[14] = 1.6 μM combined with 2.6 J/cm^2 light irradiation
[15] = 1.6 μM combined with 5.2 J/cm^2 light irradiation
[16] = 1.6 μM combined with 10.4 J/cm^2 light irradiation
[17] = 3.2 μM alone treatment, without irradiation
[18] = 3.2 μM combined with 2.6 J/cm^2 light irradiation
[19] = 3.2 μM combined with 5.2 J/cm^2 light irradiation
[20] = 3.2 μM combined with 10.4 J/cm^2 light irradiation
[21] = 6.4 μM alone treatment, without irradiation
[22] = 6.4 μM combined with 2.6 J/cm^2 light irradiation
[23] = 6.4 μM combined with 5.2 J/cm^2 light irradiation
[24] = 6.4 μM combined with 10.4 J/cm^2 light irradiation

For `C=CC1=C(C)c2cc3[nH]c(cc4nc(cc5[nH]c(cc1n2)c(C)c5CCC(=O)[O-])C(CCC(=O)[O-])=C4C)c(C)c3C(C)OCCCCCC.[Na+].[Na+]` (stereo not drawn) [Photohexer P-1, 2-(1-hexyloxyethyl)-6,7-bis(propionatesodium)-1,3,5,8-tetramethyl-4-vinylporphyrin], the solubility [1] was ~3300 µg/mL, the “photosensitive toxicity compared between P-1 and P-2” value [2] was “significantly stronger toxicity than that of P-2” and the Cell survival rate [2, 9] was 99.32 ± 3.43%. For the same molecule, the Cell survival rate [2, 10] was 84.64 ± 3.79%, the Cell survival rate [2, 11] was 74.34 ± 4.23% and the Cell survival rate [2, 12] was 60.09 ± 4.54%. For the same molecule, the Cell survival rate [2, 13] was 97.28 ± 2.48%, the Cell survival rate [2, 14] was 64.63 ± 2.39% and the Cell survival rate [2, 15] was 66.40 ± 3.12%. It also gave a Cell survival rate [2, 16] of 41.05 ± 3.47%, a Cell survival rate [2, 17] of 92.81 ± 1.37% and a Cell survival rate [2, 18] of 44.02 ± 2.05%. The Cell survival rate [2, 19] was 41.43 ± 1.27%, the Cell survival rate [2, 20] was 36.89 ± 2.26% and the Cell survival rate [2, 21] was 80.68 ± 1.04%. It also gave a Cell survival rate [2, 22] of 42.24 ± 1.01%, a Cell survival rate [2, 23] of 37.97 ± 1.04% and a Cell survival rate [2, 24] of 35.04 ± 1.34%. For the same molecule, the “toxic side effects compared between P-1 and P-2” value [3] was “higher than those of P-2”, the Cell survival rate [3, 9] was 93.23 ± 3.43% and the Cell survival rate [3, 10] was 91.63 ± 3.46%. For the same molecule, the Cell survival rate [3, 11] was 82.12 ± 4.98%, the Cell survival rate [3, 12] was 82.39 ± 4.63% and the Cell survival rate [3, 13] was 87.15 ± 2.45%. The Cell survival rate [3, 14] was 62.86 ± 2.29%, the Cell survival rate [3, 15] was 55.88 ± 2.95% and the Cell survival rate [3, 16] was 44.00 ± 3.29%. It also gave a Cell survival rate [3, 17] of 56.13 ± 1.69%, a Cell survival rate [3, 18] of 49.48 ± 2.06% and a Cell survival rate [3, 19] of 44.86 ± 1.57%. For the same molecule, the Cell survival rate [3, 20] was 41.00 ± 2.66%, the Cell survival rate [3, 21] was 44.05 ± 1.26% and the Cell survival rate [3, 22] was 36.03 ± 1.17%. For the same molecule, the Cell survival rate [3, 23] was 30.01 ± 1.07%, the Cell survival rate [3, 24] was 28.55 ± 1.47% and the “cell toxicity” value [4] was “significant cell toxicity”. The Cell survival rate [4, 9] was 100.36 ± 3.70%, the Cell survival rate [4, 10] was 55.89 ± 3.97% and the Cell survival rate [4, 11] was 41.47 ± 4.88%. For the same molecule, the Cell survival rate [4, 12] was 37.45 ± 4.34%, the Cell survival rate [4, 13] was 93.95 ± 2.47% and the Cell survival rate [4, 14] was 53.43 ± 2.96%. For the same molecule, the Cell survival rate [4, 15] was 38.42 ± 2.51%, the Cell survival rate [4, 16] was 32.58 ± 3.54% and the Cell survival rate [4, 17] was 81.01 ± 1.58%. It also gave a Cell survival rate [4, 18] of 50.99 ± 2.31%, a Cell survival rate [4, 19] of 36.95 ± 1.89% and a Cell survival rate [4, 20] of 31.79 ± 2.65%. The Cell survival rate [4, 21] was 46.84 ± 1.02%, the Cell survival rate [4, 22] was 45.48 ± 1.04% and the Cell survival rate [4, 23] was 33.47 ± 1.41%. The Cell survival rate [4, 24] was 27.27 ± 1.07%, the “sensitivity compared between P-1 and P-2” value [5] was “more sensitive than P-2” and the Cell survival rate [5, 9] was 102.94 ± 3.04%. It also gave a Cell survival rate [5, 10] of 78.02 ± 4.55%, a Cell survival rate [5, 11] of 68.03 ± 3.97% and a Cell survival rate [5, 12] of 63.99 ± 4.42%. The Cell survival rate [5, 13] was 82.48 ± 2.24%, the Cell survival rate [5, 14] was 65.32 ± 2.43% and the Cell survival rate [5, 15] was 47.92 ± 2.82%. For the same molecule, the Cell survival rate [5, 16] was 49.71 ± 3.94%, the Cell survival rate [5, 17] was 71.23 ± 1.76% and the Cell survival rate [5, 18] was 54.13 ± 2.04%. It also gave a Cell survival rate [5, 19] of 45.96 ± 1.76%, a Cell survival rate [5, 20] of 46.98 ± 2.67% and a Cell survival rate [5, 21] of 60.81 ± 1.04%. For the same molecule, the Cell survival rate [5, 22] was 50.88 ± 1.02%, the Cell survival rate [5, 23] was 41.69 ± 1.02% and the Cell survival rate [5, 24] was 44.28 ± 1.07%. It also gave a Cell survival rate [6, 9] of 101.14 ± 3.20%, a Cell survival rate [6, 10] of 99.72 ± 3.16% and a Cell survival rate [6, 11] of 95.61 ± 3.11%. The Cell survival rate [6, 12] was 89.28 ± 3.01%, the Cell survival rate [6, 13] was 100.83 ± 2.47% and the Cell survival rate [6, 14] was 97.08 ± 2.89%. For the same molecule, the Cell survival rate [6, 15] was 94.55 ± 2.77%, the Cell survival rate [6, 16] was 85.85 ± 2.68% and the Cell survival rate [6, 17] was 98.02 ± 2.59%. The Cell survival rate [6, 18] was 96.00 ± 2.24%, the Cell survival rate [6, 19] was 85.27 ± 1.89% and the Cell survival rate [6, 20] was 65.70 ± 2.01%. For the same molecule, the Cell survival rate [6, 21] was 91.27 ± 1.09%, the Cell survival rate [6, 22] was 77.99 ± 1.22% and the Cell survival rate [6, 23] was 65.38 ± 1.32%. For the same molecule, the Cell survival rate [6, 24] was 57.31 ± 1.03%, the Cell survival rate [7, 9] was 101.56 ± 4.08% and the Cell survival rate [7, 10] was 97.88 ± 4.08%. The Cell survival rate [7, 11] was 95.52 ± 3.42%, the Cell survival rate [7, 12] was 94.75 ± 4.13% and the Cell survival rate [7, 13] was 100.75 ± 4.14%. The Cell survival rate [7, 14] was 93.31 ± 3.99%, the Cell survival rate [7, 15] was 92.36 ± 2.91% and the Cell survival rate [7, 16] was 91.35 ± 3.59%. It also gave a Cell survival rate [7, 17] of 97.51 ± 3.98%, a Cell survival rate [7, 18] of 94.92 ± 3.80% and a Cell survival rate [7, 19] of 92.13 ± 2.77%. For the same molecule, the Cell survival rate [7, 20] was 88.59 ± 2.96%, the Cell survival rate [7, 21] was 96.52 ± 3.94% and the Cell survival rate [7, 22] was 94.42 ± 3.87%. The Cell survival rate [7, 23] was 90.25 ± 4.07%, the Cell survival rate [7, 24] was 84.98 ± 1.97% and the “toxic and side effects” value ([7]; alone or in combination with light irradiation) was “no obvious toxic and side effects”. The “toxic effects of photosensitizer alone” value ([8]; 4 mg/kg alone, without irradiation, 4T1 tumor-bearing mice) was “did not show significant toxic effects”, the tumor inhibition rate ([8]; 4 mg/kg combined with light irradiation (50 J/cm^2), day 22 after treatment, 4T1 tumor-bearing mice) was 25.6% and the “photosensitizer activity on growth of 4T1 transplanted tumors” value ([8]; combined with 50 J/cm^2 irradiation) was “obvious dose-dependent activity”.

— patent US20170252442A1, “PHOTOHEXER COMPOUNDS AND PHARMACEUTICAL COMPOSITION AND USE THEREOF” (RAINBOW PHARMATECH LLC, priority 2014, published 2017)
